Source: the Deep4Chem optical property database

Experiment: solvent given as SMILES

CCCCCCCCCCCCCCCCOc1cc(C#Cc2ccc3ccccc3c2)c(OCCCCCCCCCCCCCCCC)cc1C#Cc1ccc(C=C(C#N)C#N)cc1
fluorescence lifetime (in Brc1ccccc1): 2.82 ns
fluorescence lifetime (in C1CCCCC1): 1.92 ns
fluorescence lifetime (in C1CCOC1): 0.98 ns
fluorescence lifetime (in C1COCCO1): 3.1 ns
fluorescence lifetime (in CCCCCC): 1.97 ns
fluorescence lifetime (in CCCCCCCCO): 0.62 ns
fluorescence lifetime (in CCCCOCCCC): 2.73 ns
fluorescence lifetime (in CCOC(C)=O): 1.05 ns
fluorescence lifetime (in CCOCC): 3.33 ns
fluorescence lifetime (in Cc1ccccc1): 2.53 ns
fluorescence lifetime (in ClC(Cl)(Cl)Cl): 1.94 ns
fluorescence lifetime (in ClC(Cl)Cl): 2.26 ns
fluorescence lifetime (in ClCCl): 0.63 ns

CC1=[N+]2C(=C(NCc3ccccc3)c3ccc(C)n3[B-]2(F)F)C=C1c1cc2n(c1)[B-](F)(F)[N+]1=CC=CC1=C2c1c(C)cc(C)cc1C
fluorescence lifetime (in C1CCCCC1): 2.19 ns
fluorescence lifetime (in CCOC(C)=O): 0.54 ns

CCCCCCCc1ccc(C2=[N+]3C(=C4c5cc(OCC(CC)CC)c(-c6ccc(CCCCCCC)o6)n5[B-](F)(F)[n+]5nnn(c54)[B-]3(F)F)C=C2OCC(CC)CC)o1
fluorescence lifetime (in C1CCOC1): 0.3 ns
fluorescence lifetime (in ClCCl): 0.3 ns

CCC(CC)COC1=CC2=C3c4cc(OCC(CC)CC)c(-c5cccs5)n4[B-](F)(F)[n+]4c3n(c3cc(C(C)(C)C)ccc34)[B-](F)(F)[N+]2=C1c1cccs1
fluorescence lifetime (in C1CCOC1): 0.5 ns
fluorescence lifetime (in ClCCl): 0.7 ns

N#Cc1cc(N2c3ccccc3Sc3ccccc32)cc(N2c3ccccc3Sc3ccccc32)c1
fluorescence lifetime (in Cc1ccccc1): 22.6 ns

CN1CCCc2cc3c(C(F)(F)F)cc(=O)oc3cc21
fluorescence lifetime (in C1CCCCC1): 4.2 ns
fluorescence lifetime (in CC#N): 5.6 ns
fluorescence lifetime (in CCO): 5.1 ns

CCCCOC(=O)c1cc(Oc2ccc(C(C)(C)C)cc2)c2c3c(Cl)cc4c5c(cc(Cl)c(c6c(Oc7ccc(C(C)(C)C)cc7)cc(C(=O)OCCCC)c1c26)c53)C(=O)N(c1c(C(C)C)cccc1C(C)C)C4=O
fluorescence lifetime (in Cc1ccccc1): 6.42 ns

Cc1cccc(C)c1/C=C/c1nc(N2CCOCC2)c2c([n+]1[O-])CCCC2
fluorescence lifetime (in ClCCl): 9.1 ns

Cc1ccc(-c2cc(-c3ccccc3)c(C#N)c(=S)[nH]2)cc1
fluorescence lifetime (in CC#N): 4.92 ns
fluorescence lifetime (in CCO): 4.79 ns
fluorescence lifetime (in ClC(Cl)(Cl)Cl): 1.22 ns

Cc1ccc(-c2ccc(-c3ccc(-c4ccc(C)cc4)cc3/C(=C(/c3ccccc3)c3cc(-c4ccc(C)cc4)ccc3-c3ccc(-c4ccc(C)cc4)cc3)c3ccccc3)cc2)cc1
fluorescence lifetime (in C1CCOC1): 8.6 ns

CN(C)c1ccc(C#Cc2ccccc2)cc1
fluorescence lifetime (in C1CCCCC1): 0.38 ns
fluorescence lifetime (in C1CCOC1): 0.589 ns
fluorescence lifetime (in C1COCCO1): 0.71 ns
fluorescence lifetime (in CC1CCCO1): 0.414 ns
fluorescence lifetime (in CC#N): 1.25 ns
fluorescence lifetime (in CC(C)=O): 1.83 ns
fluorescence lifetime (in CC(C)CC(C)(C)C): 0.35 ns
fluorescence lifetime (in CCCCCCCCCCCCCCCC): 0.43 ns
fluorescence lifetime (in CCCCCCCCCCCCCCCCCl): 0.66 ns
fluorescence lifetime (in CCOC(C)=O): 1.16 ns
fluorescence lifetime (in CCOCC): 0.411 ns
fluorescence lifetime (in CN(C)C=O): 1.24 ns
fluorescence lifetime (in CS(C)=O): 0.757 ns
fluorescence lifetime (in Cc1ccccc1): 0.58 ns

CCC1(CC)c2cc(Br)ccc2-c2c1c1c(c3c2C(CC)(CC)c2cc(-c4cccs4)ccc2-3)C(CC)(CC)c2cc(Br)ccc2-1
fluorescence lifetime (in C1CCOC1): 0.92 ns

COc1ccc(C2=C(c3ccc(OC)cc3)C(c3ccccc3)=[N+]3C2=Nc2c(-c4ccc(OC)cc4)c(-c4ccc(OC)cc4)c(-c4ccccc4)n2[B-]3(F)F)cc1
fluorescence lifetime (in Cc1ccccc1): 0.08 ns

CC1=CC(C)=[N+]2C1=C(c1ccc(I)cc1)c1c(C)cc(C)n1[B-]2(F)F
fluorescence lifetime (in ClC(Cl)Cl): 3.11 ns

CCOc1cccc(-c2nc3c(c4c2-c2ccccc2CC4)-c2ccccc2CC3)c1O
fluorescence lifetime (in ClCCl): 0.65 ns

F[B-]1(F)OC(c2ccc(C(F)(F)F)cc2)=Cc2c3ccccc3cc[n+]21
fluorescence lifetime (in ClC(Cl)Cl): 0.14 ns

COc1cc(/C=C2/SC(=O)NC2=O)ccc1O
fluorescence lifetime (in C1CCCCC1): 0.61 ns
fluorescence lifetime (in C1COCCO1): 1.3 ns
fluorescence lifetime (in CC#N): 0.291 ns
fluorescence lifetime (in CN(C)C=O): 4.11 ns
fluorescence lifetime (in CO): 0.25 ns
fluorescence lifetime (in O): 0.281 ns
fluorescence lifetime (in OCC(O)CO): 5.79 ns
fluorescence lifetime (in OCCO): 2.52 ns

CCNc1cc2oc(=O)cc(C)c2cc1C
fluorescence lifetime (in CC#N): 3.5 ns

c1ccc(/C(=C(\c2ccccc2)c2ccccc2-c2ccccc2)c2ccccc2-c2ccccc2)cc1
fluorescence lifetime (in C1CCOC1): 4.7 ns

Cc1ccc(C2=C3C=C(I)C=[N+]3[B-](F)(F)n3cc(I)cc32)cc1
fluorescence lifetime (in C1CCCCC1): 0.117 ns
fluorescence lifetime (in CC#N): 0.057 ns
fluorescence lifetime (in CCO): 0.065 ns
fluorescence lifetime (in CCOC(C)=O): 0.069 ns
fluorescence lifetime (in CO): 0.057 ns
fluorescence lifetime (in OCC(F)(F)F): 0.072 ns

CC(C)(C)NC(=O)c1cc2ccccc2c2ccc3c4ccccc4c4ccccc4c3c12
fluorescence lifetime (in ClCCl): 3.28 ns

CC1=CC(C)=[N+]2C1=C(c1ccc(-c3ccc(O)cc3)s1)c1c(C)cc(C)n1[B-]2(F)F
fluorescence lifetime (in Cc1ccccc1): 3.5 ns
